Laboratory results taken from US7737288B2, “Non-steroidal androgen receptor modulators, preparation process, pharmaceutical composition and use thereof” (Shanghai Institute of Materia Medica Chinese Academy of …, priority 2005, dated 2010).
pIC50: −log10 of the molar value.

biological target: T1, androgen receptor (Homo sapiens, UniProt P10275); test: Test of receptor binding activity ([3H]DHT competition, hydroxyapatite); conditions: Receptor binding (IC50, nM), competition with 5 nM [3H]DHT, overnight at 4° C.
T1 construct: made in house; host or cells: insect cells (baculovirus expression system)
T1 sequence (P10275 1-920): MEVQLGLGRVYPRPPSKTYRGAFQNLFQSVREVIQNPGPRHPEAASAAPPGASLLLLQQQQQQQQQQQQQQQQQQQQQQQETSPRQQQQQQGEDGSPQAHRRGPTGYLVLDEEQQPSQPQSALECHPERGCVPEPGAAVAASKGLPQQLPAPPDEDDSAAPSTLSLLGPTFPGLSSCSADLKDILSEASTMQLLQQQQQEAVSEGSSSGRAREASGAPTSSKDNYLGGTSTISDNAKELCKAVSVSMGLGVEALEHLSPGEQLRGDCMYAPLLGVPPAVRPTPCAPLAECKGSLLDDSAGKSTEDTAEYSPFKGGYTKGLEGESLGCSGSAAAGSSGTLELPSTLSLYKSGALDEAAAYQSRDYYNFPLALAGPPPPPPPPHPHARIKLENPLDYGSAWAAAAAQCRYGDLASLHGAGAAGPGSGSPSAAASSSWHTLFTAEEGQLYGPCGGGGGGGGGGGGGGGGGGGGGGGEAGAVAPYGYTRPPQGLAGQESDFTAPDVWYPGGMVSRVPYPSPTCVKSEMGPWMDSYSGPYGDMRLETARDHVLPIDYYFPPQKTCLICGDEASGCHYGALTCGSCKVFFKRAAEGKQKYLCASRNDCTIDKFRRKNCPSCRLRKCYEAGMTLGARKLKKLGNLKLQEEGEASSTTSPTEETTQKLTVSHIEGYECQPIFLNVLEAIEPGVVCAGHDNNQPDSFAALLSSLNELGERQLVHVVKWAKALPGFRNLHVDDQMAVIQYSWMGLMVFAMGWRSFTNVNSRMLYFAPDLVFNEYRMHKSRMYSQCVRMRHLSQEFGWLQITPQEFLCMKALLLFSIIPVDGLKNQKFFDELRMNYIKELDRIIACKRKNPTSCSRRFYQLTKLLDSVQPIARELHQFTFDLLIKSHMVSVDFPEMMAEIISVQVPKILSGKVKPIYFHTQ
Protocol: Then the resultant mixture was added into the plates with a volume of 195 μl each well immediately after mixed thoroughly, and incubated overnight at 4° C. After the incubation was completed, 50 μl of hydroxyapatite (HA) solution (25% HA, 25 mM Na3PO4, pH7.4) was added to each well of the calandria, uniformly mixed by shaking, and incubated for 10 minutes, during the period it was shaken once every 3 minutes. The centrifugation was conducted at 2500 rpm for 3 minutes, the supernatant was sucked out, and the precipitate was reserved. Two hundred μl of the assay buffer was added into each well, the precipitate is avoided to be shaken as far as possible, and the centrifugation was conducted for 3 minutes again. The supernatant was sucked out, and the precipitate was reserved. The centrifugation was repeated once, the supernatant was sucked out, and the precipitate was reserved. 300 μl of scintillation fluid was added to each well.

`O=C(CC(Nc1ccc([N+](=O)[O-])c(C(F)(F)F)c1)c1ccccc1)c1ccc(Cl)cc1` (stereo not drawn) [MWW6016] gave an IC50 of 9.49 nM.

same assay, conditions: competition with 5 nM [3H]DHT, overnight at 4° C.; read-out: Receptor binding (IC50)

Point of comparison: `O=C(CC(Nc1ccc(Cl)c([N+](=O)[O-])c1)c1ccccc1)c1ccc(Br)cc1` (stereo not drawn) [MWW6022], pIC50 8.37. Against it:
- O=C(CC(Nc1ccc([N+](=O)[O-])cc1)c1ccccc1)c1ccc(Cl)cc1 (stereo not drawn) [MWW6003] — within 0.2 log units, 8.53
- O=C(CC(Nc1ccc([N+](=O)[O-])cc1)c1ccccc1)c1ccc(Br)cc1 (stereo not drawn) [MWW6015] — within 0.2 log units, 8.55
- O=C(CC(Nc1ccc(Cl)c([N+](=O)[O-])c1)c1ccccc1)c1ccc(Cl)cc1 (stereo not drawn) [MWW6021] — within 0.2 log units, 8.19
- O=C(CC(Nc1ccc(Cl)c([N+](=O)[O-])c1)c1ccco1)c1ccc(Cl)cc1 (stereo not drawn) [MWW6030] — within 0.2 log units, 8.49
- O=C(CC(Nc1ccc(Cl)c([N+](=O)[O-])c1)c1ccco1)c1ccc(Br)cc1 (stereo not drawn) [MWW6031] — within 0.2 log units, 8.44
- O=C(CC(Nc1ccc([N+](=O)[O-])cc1)c1ccco1)c1ccc(Br)cc1 (stereo not drawn) [MWW6033] — within 0.2 log units, 8.52

system: androgen receptor; test: Test of reporter gene expression (luciferase) in transfected MDA-MB-453 cells; format: cell-based, human; conditions: not given

In the case of `O=C(CC(Nc1ccc([N+](=O)[O-])cc1)c1ccccc1)c1ccc(Cl)cc1` (stereo not drawn) [MWW6003], the “androgen receptor antagonistic activities, IC50 compared with bicalutamide” value was “close to the androgen receptor antagonist bicalutamide”.
With `O=C(CC(Nc1ccc([N+](=O)[O-])cc1)c1ccco1)c1ccc(Cl)cc1` (stereo not drawn) [MWW6032] the “androgen receptor antagonistic activities, IC50 compared with bicalutamide” value was “close to the androgen receptor antagonist bicalutamide”.

system: LNCaP cells; test: Test of prostate cancer cell proliferation induced by DHT (MTT); format: cell-based; conditions: Homo sapiens, 144 h, read-out: IC50, inhibition of LNCaP cell proliferation stimulated by DHT
Protocol: LNCaP cells were cultured in RPMI1640 medium containing 10% FBS and 2 mM L-glutamine. The above medium was replaced by RPMI1640 medium containing 5% CD-FBS one day before experiment. When the cells grew to 90% confluence, the cells were added to 96-well plate with 4000 cells/90 μL/well after dissociated with trypsin, and were cultured at 37° C. overnight. The compounds to be tested were added to the cells with 10 μL/well after diluted to certain concentrations. […]. […] MTT solution (5 mg/mL) was added with 20 μL/well before the culture was completed. Light absorption values at 560 nm were measured with the reference wavelength of 690 nm.

Compound `O=C(CC(Nc1ccc([N+](=O)[O-])cc1)c1ccco1)c1ccc(Cl)cc1` (stereo not drawn) [MWW6032] has a pIC50 of 5.64.

system: not given; test: not given; conditions: not given

First: Cc1ccc(C(=O)CC(Nc2ccc(Cl)cc2)c2ccccc2)cc1 (stereo not drawn) [Example 1, 3-phenyl-3-(4-chloroanilino)-1-(4-methylphenyl)-1-acetone]
Second: Cc1ccc(C(=O)CC(Nc2ccc([N+](=O)[O-])cc2)c2ccccc2)cc1 (stereo not drawn) [Example 3, 3-phenyl-3-(4-nitroanilino)-1-(4-methylphenyl)-1-acetone]
The melting point of the first is lower: 152 to 154 °C for the first, 157 to 159 °C for the second.

First: Cc1ccc(C(=O)CC(Nc2ccc(C(=O)O)cc2)c2ccccc2)cc1 (stereo not drawn) [Example 4, 3-phenyl-3-(4-carboxylanilino)-1-(4-methylphenyl)-1-acetone]
Second: Cc1ccc(C(=O)CC(Nc2ccccc2)c2ccc(C)cc2)cc1 (stereo not drawn) [Example 5, 3-(4-methylphenyl)-3-anilino-1-(4-methylphenyl)-1-acetone]
The melting point of the first is higher: 208 to 210 °C for the first, 131 to 132 °C for the second.
